Patent publication US8362000B2, “Azetidinyl diamides as monoacylglycerol lipase inhibitors” (Janssen Pharmaceutica NV, priority 2009, dated 2013)
Where a chain is given by its changes, count along the chain named. pIC50, pKd: −log10 of the molar value.

Tests used:
[1] = target: T1, MGL (Rattus norvegicus, UniProt Q8R431); test: 2-AG accumulation assay in rat brain homogenate; format: biochemical; details: rat brain homogenate, 2-AG accumulation as percent of vehicle; for 2-AG accumulation, % of vehicle control at 10 µM: compound 10 μM, read-out: Rat Brain 2AG % VehCntrl (%) @ 10 μM; for 2-AG accumulation, % of vehicle control at 1 µM: compound 1 μM, read-out: Rat Brain 2AG % VehCntrl (%) @ 1 μM
T1 construct: one g rat brain was homogenized using a Polytron homogenizer; from tissue; host or cells: rat brain homogenate
T1 sequence (Q8R431 1-303): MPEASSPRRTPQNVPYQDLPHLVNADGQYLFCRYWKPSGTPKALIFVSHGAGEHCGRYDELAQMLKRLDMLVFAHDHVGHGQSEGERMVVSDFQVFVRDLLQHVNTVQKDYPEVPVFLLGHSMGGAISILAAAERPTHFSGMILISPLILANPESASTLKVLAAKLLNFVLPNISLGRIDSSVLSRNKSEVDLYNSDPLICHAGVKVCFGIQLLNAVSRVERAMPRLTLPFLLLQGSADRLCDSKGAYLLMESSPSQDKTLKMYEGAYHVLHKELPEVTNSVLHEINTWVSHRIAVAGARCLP

[2] = target: T2, mutant MGL (Homo sapiens, UniProt Q99685, L169S/L176S); test: MGL ThermoFluor assay - mutant; format: binding; details: ThermoFluor concentration-response, read-out: MGL mutant ThermoFluor Kd
T2 sequence (Q99685 1-303 L169S/L176S): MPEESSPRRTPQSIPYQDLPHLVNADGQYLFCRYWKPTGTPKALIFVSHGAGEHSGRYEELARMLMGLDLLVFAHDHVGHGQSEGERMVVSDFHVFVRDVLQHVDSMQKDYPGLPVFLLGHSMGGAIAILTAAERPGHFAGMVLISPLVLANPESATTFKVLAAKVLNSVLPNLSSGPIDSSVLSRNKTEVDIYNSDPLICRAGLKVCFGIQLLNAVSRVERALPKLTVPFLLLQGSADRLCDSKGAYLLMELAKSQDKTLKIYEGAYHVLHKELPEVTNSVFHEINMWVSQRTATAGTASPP

[3] = target: T3, purified wild type MGL (wt-MGLL 6H-11-313) (Homo sapiens, UniProt Q99685)
T3 sequence (Q99685 1-303): T2 sequence (Q99685 1-303 L169S/L176S) with S169L, S176L

SMILES | 2-AG accumulation, % of vehicle control at 10 µM [1] [%] | pKd [2] | pIC50 [3] | 2-AG accumulation, % of vehicle control at 1 µM [1] [%]
O=C(c1ccc(-c2ccccc2)cc1)N1CC(N2CCN(C(=O)c3cccs3)CC2)C1 [Cpd 13, 1-[1-(Biphenyl-4-ylcarbonyl)azetidin-3-yl]-4-(thiophen-2-ylcarbonyl)piperazine] | 730 | 8.52 | 7.72 | –
N#Cc1cccc(-c2ccc(C(=O)N3CC(N4CCN(C(=O)c5nccs5)CC4)C3)cc2)c1 [Cpd 161, 4′-({3-[4-(1,3-Thiazol-2-ylcarbonyl)piperazin-1-yl]azetidin-1-yl}carbonyl)biphenyl-3-carbonitrile] | – | 7.95 | 7.93 | 335
N#Cc1ccc(-c2ccc(C(=O)N3CC(N4CCN(C(=O)c5nccs5)CC4)C3)cc2)cc1 [Cpd 167, 4′-({3-[4-(1,3-Thiazol-2-ylcarbonyl)piperazin-1-yl]azetidin-1-yl}carbonyl)biphenyl-4-carbonitrile] | – | 7.25 | 7.82 | 481
CS(=O)(=O)Nc1cccc(-c2ccc(C(=O)N3CC(N4CCN(C(=O)c5nccs5)CC4)C3)cc2)c1 [Cpd 219, N-[4′-({3-[4-(1,3-Thiazol-2-ylcarbonyl)piperazin-1-yl]azetidin-1-yl}carbonyl)biphenyl-3-yl]methanesulfonamide] | 851 | – | 7.49 | –
O=C(c1ccc(-c2ccc(F)c(Cl)c2)cc1)N1CC(N2CCN(C(=O)c3cscn3)CC2)C1 [Cpd 227, 1-{1-[(3′-Chloro-4′-fluorobiphenyl-4-yl)carbonyl]azetidin-3-yl}-4-(1,3-thiazol-4-ylcarbonyl)piperazine] | 938 | – | 8.15 | –
O=C(c1ccc(-c2ccc(Cl)c(Cl)c2)cc1)N1CC(N2CCN(C(=O)c3cscn3)CC2)C1 [Cpd 228, 1-{1-[(3′,4′-Dichlorobiphenyl-4-yl)carbonyl]azetidin-3-yl}-4-(1,3-thiazol-4-ylcarbonyl)piperazine] | 710 | – | > 8.30 | –
O=C(c1ccc2c(c1)CCCN2C(=O)C1CCC1)N1CC(N2CCN(C(=O)c3nccs3)CC2)C1 [Cpd 364] | – | – | 6.68 | 581
O=C(c1ccc(Oc2cccc(C(F)(F)F)c2)nc1)N1CC(N2CCN(C(=O)c3cscn3)CC2)C1 [Cpd 689] | – | – | 7.35 | 136
O=C(c1ccc(S(=O)(=O)c2cccc(Cl)c2)cc1)N1CC(N2CCN(C(=O)c3nccs3)CC2)C1 [Cpd 876] | – | – | > 8.30 | 363
O=C(c1ccc2c(c1)CCN(Cc1ccc(C(F)(F)F)cc1)C2)N1CC(N2CCN(C(=O)c3nccs3)CC2)C1 [Cpd 880] | – | – | > 8.30 | 945
O=C(c1ccc(N2CCCCCC2)cc1)N1CC(N2CCN(C(=O)c3nccs3)CC2)C1 [Cpd 888] | – | – | > 8.30 | 940
O=C(c1ccc(Cc2ccc(C(F)(F)F)cc2)cc1)N1CC(N2CCN(C(=O)c3cscn3)CC2)C1 [Cpd 999] | – | – | 8.10 | 458
O=C(c1ccc2c(ccn2-c2ccc(F)cc2F)c1)N1CC(N2CCN(C(=O)c3ccc[nH]3)CC2)C1 [Cpd 1061, 1-(2,4-Difluorophenyl)-5-({3-[4-(1H-pyrrol-2-ylcarbonyl)piperazin-1-yl]azetidin-1-yl}carbonyl)-1H-indole] | – | – | 8.22 | 618
O=C(c1ccc2c(-c3ccc(C(F)(F)F)cc3)ncnc2c1)N1CC(N2CCN(C(=O)c3nccs3)CC2)C1 [Cpd 1086] | – | – | 8.05 | 488
O=C(c1ccc2c(-c3ccccc3)ncnc2c1)N1CC(N2CCN(C(=O)c3nccs3)CC2)C1 [Cpd 1130] | – | – | 7.66 | 553
Cn1cc(-c2ccccc2)c2ccc(C(=O)N3CC(N4CCN(C(=O)c5cscn5)CC4)C3)cc21 [Cpd 1155] | – | – | 7.39 | 617
O=C(c1cc(-c2ccccc2)n(-c2ccccc2)n1)N1CC(N2CCN(C(=O)c3nccs3)CC2)C1 [Cpd 1164] | – | – | 7.32 | 250
Cn1cc(-c2ccc(C(F)(F)F)cc2)c2ccc(C(=O)N3CC(N4CCN(C(=O)c5nccs5)CC4)C3)cc21 [Cpd 1347] | – | – | > 8.30 | 741

Continued, values first:

2-AG accumulation, % of vehicle control at 10 µM [1] [%] | pKd [2] | pIC50 [3] | 2-AG accumulation, % of vehicle control at 1 µM [1] [%] | SMILES
579 | 7.43 | 7.93 | – | CC1CN(C2CN(C(=O)c3ccc(Cc4ccccc4)cc3)C2)CCN1C(=O)c1nccs1 (centres unmarked) [Cpd 115]
213 | 6.32 | 6.18 | 126 | O=C(c1csc(-c2cc(Cl)cc(Cl)c2)n1)N1CC(N2CCN(C(=O)c3nccs3)CC2)C1 [Cpd 158, 1-(1-{[2-(3,5-Dichlorophenyl)-1,3-thiazol-4-yl]carbonyl}azetidin-3-yl)-4-(1,3-thiazol-2-ylcarbonyl)piperazine]
– | 8.30 | > 8.30 | 509 | O=C(c1ccc(-c2ccccc2)c(F)c1)N1CC(N2CCN(C(=O)c3nccs3)CC2)C1 [Cpd 166, 1-{1-[(2-Fluorobiphenyl-4-yl)carbonyl]azetidin-3-yl}-4-(1,3-thiazol-2-ylcarbonyl)piperazine]
– | 8.00 | > 8.30 | 813 | O=C(c1ccc(-c2ccc(Br)cc2)cc1)N1CC(N2CCN(C(=O)c3nccs3)CC2)C1 [Cpd 168, 1-{1-[(4′-Bromobiphenyl-4-yl)carbonyl]azetidin-3-yl}-4-(1,3-thiazol-2-ylcarbonyl)piperazine]
520 | – | > 8.30 | – | O=C(c1ccccc1)N1CCN(C2CN(C(=O)c3ccc(OCc4cccc(Cl)c4Cl)cc3)C2)CC1 [Cpd 381, 1-[1-({4-[(2,3-Dichlorobenzyl)oxy]phenyl}carbonyl)azetidin-3-yl]-4-(phenylcarbonyl)piperazine]
– | – | 5.79 | 86 | O=C(c1ccccc1)N1CCN(C2CN(C(=O)c3ccc(Oc4cc(C(F)(F)F)ccn4)cc3)C2)CC1 [Cpd 518]
– | – | 7.62 | 751 | O=C(c1cccc(C(F)(F)F)c1)N1CCc2cc(C(=O)N3CC(N4CCN(C(=O)c5nccs5)CC4)C3)ccc2C1 [Cpd 679, 6-({3-[4-(1,3-Thiazol-2-ylcarbonyl)piperazin-1-yl]azetidin-1-yl}carbonyl)-2-{[3-(trifluoromethyl)phenyl]carbonyl}-1,2,3,4-tetrahydroisoquinoline]
– | – | > 8.30 | 823 | O=C(c1ccc2c(c1)Sc1ccccc1O2)N1CC(N2CCN(C(=O)c3nccs3)CC2)C1 [Cpd 886]
– | – | > 8.30 | 639 | O=C(c1ccc(Cc2cccc(C(F)(F)F)c2)cc1)N1CC(N2CCN(C(=O)c3cscn3)CC2)C1 [Cpd 998]
– | – | 7.89 | 698 | Cc1c(C(=O)N2CC(N3CCN(C(=O)c4nccs4)CC3)C2)nn(-c2ccc(Cl)cc2Cl)c1-c1ccc(Cl)cc1 [Cpd 1103]
– | – | 7.60 | 325 | O=C(c1ccc(-c2ccc(C(F)(F)F)s2)cc1)N1CCN(C2CN(C(=O)c3cscn3)C2)CC1 [Cpd 1136]
– | – | 7.48 | 344 | Cn1cc(-c2ccc(C(F)(F)F)cc2)c2ccc(C(=O)N3CC(N4CCN(C(=O)c5cscn5)CC4)C3)cc21 [Cpd 1148]
